From paper PMC7614687, “Modulation of the substrate specificity of the kinase PDK1 by distinct conformations of the full-length protein*” (Science signaling, 2023)
pIC50: −log10 of the molar value.

Columns and labels:
PDK1_1-556 = target: T1, PDK1_1-556 (Homo sapiens, UniProt O15530); experiment: Differential scanning fluorimetry, thermal stability of PDK1_1-556; format: binding
T1 construct: effect of HYG8 on the thermal stability (ΔTm) of PDK1_1-556 (H) and PDK1_50-359 (I); His (N); made in house; host or cells: Sf9 insect cells (baculovirus)
T1 sequence (O15530 1-556): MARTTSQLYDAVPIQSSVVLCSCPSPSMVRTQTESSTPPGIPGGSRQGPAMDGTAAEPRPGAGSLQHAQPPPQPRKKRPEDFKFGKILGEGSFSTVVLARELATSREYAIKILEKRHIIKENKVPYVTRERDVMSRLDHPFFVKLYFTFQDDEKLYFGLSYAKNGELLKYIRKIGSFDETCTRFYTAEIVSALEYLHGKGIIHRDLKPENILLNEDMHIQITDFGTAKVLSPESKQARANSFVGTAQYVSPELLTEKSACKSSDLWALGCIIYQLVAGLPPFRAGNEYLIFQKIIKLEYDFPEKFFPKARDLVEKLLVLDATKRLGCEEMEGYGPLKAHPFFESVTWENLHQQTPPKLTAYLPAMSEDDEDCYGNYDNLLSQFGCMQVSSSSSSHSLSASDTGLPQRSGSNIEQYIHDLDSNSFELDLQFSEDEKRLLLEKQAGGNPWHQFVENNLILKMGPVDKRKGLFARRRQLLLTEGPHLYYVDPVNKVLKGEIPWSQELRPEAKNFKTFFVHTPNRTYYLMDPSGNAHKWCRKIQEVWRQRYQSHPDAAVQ
Description: (§1) The thermal stability of PDK1 was assessed by monitoring the unfolding of PDK1 by the increase in the fluorescence of SYPRO Orange (Invitrogen) using a real-time PCR device (StepOnePlus, Applied Biosystems and BioRad CFX96) following a previously described protocol ([70]). The reactions were performed in a final volume of 10 μl in white 96-well PCR microtiter plates (Greiner) and contained 1 μM PDK1, 10 mM HEPES (pH 7.5), 150 mM NaCl, 1/1000 SYPRO Orange and 1 mM dithiothreitol. For valsartan, the assay buffer was modified to exclude NaCl. PIFtide or compounds (at a final DMSO concentration of 1%) were added to this reaction mixture. The temperature gradient was performed in steps of 0.3 °C in the range from 25 to 70 °C. To calculate the Tm values, data were exported to GraphPad Prism and curves fitted to a Boltzmann sigmoidal equation with an acceptable confidence interval of 95%. Statistical analysis was performed with Infostat software (http://www.infostat.com.ar) and GraphPad Prism by first verifying a normal distribution of pooled residuals (Shapiro-Wilks test) and homogeneity of variance (F test), and then performing a one-way ANOVA followed by the post hoc comparisons test indicated in each figure legend.

PDK1_50-359 = target: T2, PDK1_50-359 (Homo sapiens, UniProt O15530); experiment: Differential scanning fluorimetry, thermal stability of PDK1_50-359 (catalytic domain); format: binding
T2 construct: His (N); made in house; host or cells: insect cells (stated for the crystallography batch)
T2 sequence (O15530 50-359): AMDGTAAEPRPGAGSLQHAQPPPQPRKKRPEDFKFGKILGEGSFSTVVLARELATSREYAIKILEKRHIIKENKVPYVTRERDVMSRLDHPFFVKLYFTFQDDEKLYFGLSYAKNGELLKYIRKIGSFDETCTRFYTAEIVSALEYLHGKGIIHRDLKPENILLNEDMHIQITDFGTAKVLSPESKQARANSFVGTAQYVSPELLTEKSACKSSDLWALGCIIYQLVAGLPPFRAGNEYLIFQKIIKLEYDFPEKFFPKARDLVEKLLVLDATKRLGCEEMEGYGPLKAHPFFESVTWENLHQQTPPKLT
Description: as §1

GST-PDK1_1-556 = target: T3, GST-PDK1_1-556 (Homo sapiens, UniProt O15530); experiment: AlphaScreen GST-PDK1_1-556 / biotin-PIFtide interaction; format: binding
T3 construct: made in house; host or cells: HEK293 cells (transient transfection of pEBG2T); peptide synthesized by Pepscan
T3 sequence (O15530 1-556): T1 sequence (O15530 1-556)
Description: (§2) The AlphaScreen® assay was performed following the general guidelines from the manufacturer (Perkin Elmer) ([29]). In short, the assay was performed in a final volume of 25 μl in white 384-well microtiter plates (Greiner) in a standard buffer containing 50 mM Tris-HCl (pH 7.4), 100 mM NaCl, 2 mM DTT, 0.01% (v/v) Tween-20 and 0.1% (w/v) BSA, with the addition of 5 μl of beads (anti-GST coated acceptor beads and streptavidin-coated donor beads; nickel chelate-coated acceptor beads and streptavidin-coated donor beads; or nickel chelate-coated acceptor beads and GSH-coated donor beads, 20 μg/ml final concentrations for each bead type). AlphaScreen assays for His-tagged proteins and GST-fusion proteins were performed using nickel chelate-coated acceptor beads and GSH-coated donor beads; alphascreen assays for His-tagged proteins and biotinylated molecules were performed using nickel chelate-coated acceptor beads and streptavidin-coated donor beads; alphascreen assays for GST-fusion proteins and biotinylated molecules were performed using anti-GST coated acceptor beads and streptavidin-coated donor beads (Perkin Elmer).
The interaction between GST-PDK1_1-556 and biotin-PIFtide was performed as described previously ([29], [32]) in the standard buffer, but the bead concentration was lowered to 15 μg/ml.

PDK1 = target: T4, PDK1 (Homo sapiens, UniProt O15530); experiment: PDK1 activity assay with T308tide and [γ32P]ATP; format: biochemical; details: isolated catalytic domain
T4 construct: made in house; host or cells: HEK293 (GST fusion) or Sf9 insect cells (His form)
T4 sequence (O15530 1-359): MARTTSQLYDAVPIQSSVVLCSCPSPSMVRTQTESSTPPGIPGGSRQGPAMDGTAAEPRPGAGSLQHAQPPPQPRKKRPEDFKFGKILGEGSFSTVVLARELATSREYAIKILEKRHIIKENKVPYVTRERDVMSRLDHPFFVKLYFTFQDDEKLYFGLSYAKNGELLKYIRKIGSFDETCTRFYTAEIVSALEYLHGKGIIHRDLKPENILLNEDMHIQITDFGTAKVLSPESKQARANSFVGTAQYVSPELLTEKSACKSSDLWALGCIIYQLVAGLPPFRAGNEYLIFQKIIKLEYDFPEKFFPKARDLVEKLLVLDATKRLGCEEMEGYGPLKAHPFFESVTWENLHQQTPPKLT
Description: The PDK1 activity assay using T308tide as a substrate was performed essentially as previously described ([18], [28], [54]). In brief, the assay was performed in a 20 μl format containing 50 mM Tris pH 7.5, 0.05 mg/ml BSA, 0.1% ß-mercaptoethanol, 10 mM MgCl2, 100 μM [γ^32P]ATP (5-50 cpm/pmol), 0.003% Brij, 150-500 ng PDK1, and T308tide (0.3 mM) at room temperature. The assay was performed in 96 well plated and stopped by the addition of 5 μl of 0.1 % phosphoric acid. 4 μl aliquots were spotted on p81 phosphocellulose papers (Whatmann) using ep motion 5070 (Eppendorf). The phosphocellulose papers were washed in 0.01% phosphoric acid, dried, and exposed using PhosphoImager (FLA-9000 Starion). Data were analyzed with ImageQuant software (Fujifilm). Activity measurements were performed in technical duplicates or triplicates with less than 10% difference between replicates. Experiments were repeated at least twice. The activity measurements of PDK1 towards GS-022 and GS-023 were performed similarly, with the GS-peptides replacing T308tide at the indicated concentrations. GS-022 and GS-023 have features consistent with the loose characteristics disclosed for the peptide Ser/Thr 07, ((R/K)1-3(X)0-2 (S/T) (X)0-2(R/K)1-3, where X is any residue) used by the commercial “PDK1 Direct” assay.

[1] = target: T5, His-PDK1_1-556 and GST-PDK1_360-556 (Homo sapiens, UniProt O15530); experiment: AlphaScreen PDK1 dimerization assay His-PDK1_1-556 / GST-PDK1_360-556; format: binding; details: Prestwick library screen hits; read-out: IC50, inhibition of PDK1 dimerization
T5 construct: made in house; host or cells: Sf9 insect cells (His-PDK1_1-556); HEK293 cells (GST-PDK1_360-556)
T5 sequence (O15530 1-556): T1 sequence (O15530 1-556)
Description: as §2
The conditions for each AlphaScreen assay were identified in cross-titration experiments for each interaction to choose the ideal pair of concentrations within the linear range of the interactions. […] His-PDK1 and GST-fusion protein in the presence or absence of the different compounds were incubated in the dark for 60 min at room temperature and the emission of light from the acceptor beads was measured in an EnVision reader (Perkin Elmer) or Spark plate reader (Tecan). […]

CCCCC(=O)N(Cc1ccc(-c2ccccc2-c2nnn[nH]2)cc1)[C@H](C(=O)O)C(C)C [valsartan, reference compound]
ΔTm at 50 µM (PDK1_1-556; 50 μM, buffer without NaCl): 2.2 °C
effect on temperature stability of the PDK1-HYG8 complex (PDK1_1-556; in presence of HYG8): did not further enhance
effect on thermal stability of PDK1_50-359 (catalytic domain) (PDK1_50-359): less stabilization
effect on PDK1-PIFtide interaction (GST-PDK1_1-556): inhibited
effect on activity of the isolated catalytic domain of PDK1 toward T308tide (PDK1): modestly increased
pIC50 [1]: 4.49
